Data as given in the NIST ThermoML archive (doi:10.1016/j.tca.2015.10.001).
Numbers after ± are expanded uncertainties.

Assays:
[1] = Molar enthalpy of transition or fusion; settings: Crystal; DSC
[2] = Crystal; DTA

Molar enthalpy of transition or fusion [1]: 13.8 ± 0.86 kcal/mol
Normal melting temperature [2]: 28.40 ± 4 °C
Compound: CCCCCCCCCCCCCCCCCC [octadecane]
